Assay results as given in article PMC10135050, “Neutralizing Carbapenem Resistance by Co-Administering Meropenem with Novel β-Lactam-Metallo-β-Lactamase Inhibitors” (Antibiotics, 2023).

How the values were obtained:
[1] = parameters: method as in PMID 32179522; conditions: cited from earlier work
[2] = parameters: method as in PMID 26849010, PMID 32903882; conditions: cited from earlier work
[3] = biological target: T1, Recombinant human glyoxylase II (Glo2) (Homo sapiens, UniProt Q16775); assay: Non-specific binding to zinc in non-MBLs, glyoxylase II activity; type: biochemical; conditions: 50–500 µM
T1 construct: purchased BioVision Inc., Waltham, MA, USA
From the text: Metal chelators are known to suffer from off-target specificity and as a result have been criticized as potential MBLIs in vivo [44].
The methodology has been previously described. EDTA (purchased from Merck KGaA, Darmstadt, Germany) was included as a positive control.

[4] = in vivo; cited from earlier work

CN(C[C@H](O)[C@@H](O)[C@H](O)[C@H](O)CO)C(=O)c1ccc(CN(Cc2ccccn2)Cc2ccccn2)nc1 [ZN148]
Decrease in the bacterial load in vivo [1]: approximately 3 log10 units

c1ccc(CN(CCN(Cc2ccccn2)Cc2ccccn2)Cc2ccccn2)nc1 [TPEN, N,N,N′,N′-Tetrakis (2-Pyridylmethyl) Ethylenediamine]
Cytotoxicity [2]: cytotoxicity

O=C(O)CN(CCN(CC(=O)O)CC(=O)O)CC(=O)O [EDTA, reference compound]
Glyoxylase II activity [3]: significantly reduced

COC(=O)C(CC(=O)N[C@@H]1C(=O)N2C(C(=O)O)=C(C[n+]3ccccc3)CS[C@H]12)N1CCN(CC(=O)O)CCN(CC(=O)O)CC1 (some centres unmarked) [BP1]
Decrease in the bacterial load in vivo [1]: approximately 3 log10 units

O=C(O)CN1CCN(CC(=O)O)CCN(CC(=O)O)CC1 [NOTA]
Bioavailability [4]: poor bioavailability
